Read-outs that look alike come from different tables or passages of the source.
How the values were obtained:
CDK2/CycA = CDK2/CycA (Homo sapiens (Human), UniProt P24941); test: Z'LYTE kinase assay for CDK2/CycA at Km ATP; format: biochemical
CDK16/CycY = CDK16/CycY (Homo sapiens (Human), UniProt Q00536); test: Lanthascreen Eu kinase binding assay for CDK16/CycY
Protocol: Lanthascreen Eu kinase binding assays were conducted for CDK16/CycY at Life Technologies.

HCT116 cells = test: Antiproliferation assay, Cell Titer Glo, 72 hours; format: cell-based
Protocol: HCT116 cells were plated in 384-well plates at 750 cells/well in 50 ul fresh media (McCoy's 5A+10% FBS+1% Penn/Strep) and treated with 0.1 μl candidate compounds in four-fold dilution series using the Janus pinner. Cells were incubated with compounds for 72 hours in 37° C. 5% CO2. Anti-proliferative effects of these compounds were assessed 72 hours after compound addition using Cell Titer Glo (Promega cat #G7571) as described in product manual by luminescence measurements using an Envision platereader. All proliferation assays were performed in biological quadruplicate. IC50 values were determined using a non-linear regression curve fit in GraphPad Prism 6.

Cdk14/CycY = Cdk14/CycY (Homo sapiens (Human), UniProt O94921); test: Lanthascreen Eu kinase binding assay for Cdk14/CycY with 30 minute pre-incubation; settings: 30 minute pre-incubation of kinase with compound; read-out: IC50 CDK14 binding by Lanthascreen
Cdk14/CycY, sequence (O94921 whole entry): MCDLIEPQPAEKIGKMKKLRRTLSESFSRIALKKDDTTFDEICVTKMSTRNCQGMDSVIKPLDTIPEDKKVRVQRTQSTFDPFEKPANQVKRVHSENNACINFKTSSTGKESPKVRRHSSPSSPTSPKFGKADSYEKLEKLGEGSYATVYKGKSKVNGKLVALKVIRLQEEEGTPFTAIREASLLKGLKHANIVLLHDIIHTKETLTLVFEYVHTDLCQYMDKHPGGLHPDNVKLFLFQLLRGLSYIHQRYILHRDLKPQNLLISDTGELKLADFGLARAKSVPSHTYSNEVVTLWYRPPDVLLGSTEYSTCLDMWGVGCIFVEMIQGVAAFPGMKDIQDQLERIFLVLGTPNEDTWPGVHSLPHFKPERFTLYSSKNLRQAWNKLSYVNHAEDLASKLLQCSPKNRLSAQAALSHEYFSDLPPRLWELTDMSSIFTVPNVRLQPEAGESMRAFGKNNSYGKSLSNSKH
Cdk14/CycY, sequence (Q8ND76 whole entry partner): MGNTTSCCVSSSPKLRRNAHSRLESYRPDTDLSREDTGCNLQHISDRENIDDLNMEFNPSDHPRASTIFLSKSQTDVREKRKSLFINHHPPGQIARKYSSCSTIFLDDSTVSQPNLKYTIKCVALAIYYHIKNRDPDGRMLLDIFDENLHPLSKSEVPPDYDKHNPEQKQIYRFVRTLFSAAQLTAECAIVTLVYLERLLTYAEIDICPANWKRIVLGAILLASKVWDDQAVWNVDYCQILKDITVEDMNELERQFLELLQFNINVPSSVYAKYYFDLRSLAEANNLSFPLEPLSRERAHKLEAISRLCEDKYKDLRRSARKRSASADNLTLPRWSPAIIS
Protocol: Lanthascreen Eu kinase binding assays were conducted for Cdk14/CycY largely as performed in the commercial assay service by Life Technologies, but included a 30 minute pre-incubation step of the kinase with candidate compounds to facilitate covalent bond formation.

[1] = read-out: IC50 CDK2 Z′LYTE kinase assay
[2] = read-out: IC50 CDK16 Lanthascreen binding

CDK16/CycY, sequence (Q00536 whole entry): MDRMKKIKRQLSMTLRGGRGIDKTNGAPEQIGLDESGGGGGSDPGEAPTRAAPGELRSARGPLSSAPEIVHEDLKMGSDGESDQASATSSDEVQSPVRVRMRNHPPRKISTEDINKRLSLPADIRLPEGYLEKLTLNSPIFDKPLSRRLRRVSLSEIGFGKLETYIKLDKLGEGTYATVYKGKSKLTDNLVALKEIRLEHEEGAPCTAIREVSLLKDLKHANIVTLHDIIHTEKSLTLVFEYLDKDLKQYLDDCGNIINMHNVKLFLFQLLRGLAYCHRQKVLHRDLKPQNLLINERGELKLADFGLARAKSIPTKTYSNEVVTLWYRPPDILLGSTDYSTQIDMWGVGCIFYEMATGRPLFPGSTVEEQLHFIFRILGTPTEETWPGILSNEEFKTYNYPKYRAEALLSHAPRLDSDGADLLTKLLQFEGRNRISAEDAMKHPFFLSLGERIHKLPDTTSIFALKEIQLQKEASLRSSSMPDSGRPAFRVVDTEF
CDK16/CycY, sequence (Q8ND76 whole entry partner): as the sequence (Q8ND76 whole entry partner) above

CN(C)C/C=C/C(=O)Nc1cccc(S(=O)(=O)N2CCC(NC(=O)c3n[nH]cc3NC(=O)c3c(Cl)cccc3Cl)CC2)c1 [FMF-03-198-2, (E)-4-(2,6-dichlorobenzamido)-N-(1-((3-(4-(dimethylamino)but-2-enamido)phenyl)sulfonyl)piperidin-4-yl)-1H-pyrazole-3-carboxamide]
IC50 (CDK2/CycA; [1]): 0.0009 µM
IC50 (CDK16/CycY; [2]): 0.0009 µM

CN(C)C/C=C/C(=O)Nc1cccc(CN2CCC(NC(=O)c3n[nH]cc3NC(=O)c3c(Cl)cccc3Cl)CC2)c1 [FMF-03-200-2]
IC50 (CDK2/CycA; [1]): 0.026 µM
IC50 (CDK16/CycY; [2]): 0.0102 µM
IC50 (HCT116 cells): 0.0021 µM
IC50 (HCT116 cells; Homo sapiens, HCT-116, 72 h): 0.0022 µM

CCC(=O)Nc1cccc(S(=O)(=O)N2CCC(NC(=O)c3n[nH]cc3NC(=O)c3c(Cl)cccc3Cl)CC2)c1 [FMF-04-060-1, 4-(2,6-dichlorobenzamido)-N-(1-((3-propionamidophenyl)sulfonyl)piperidin-4-yl)-1H-pyrazole-3-carboxamide]
IC50 (CDK2/CycA; [1]): 0.003 µM
IC50 (CDK16/CycY; [2]): 0.0023 µM
IC50 (HCT116 cells; Homo sapiens, HCT-116, 72 h): 0.076 µM

CN(C)C/C=C/C(=O)Nc1cccc(S(=O)(=O)N2CCC(N(C)C(=O)c3n[nH]cc3NC(=O)c3c(Cl)cccc3Cl)CC2)c1 [FMF-04-086-2, (E)-4-(2,6-dichlorobenzamido)-N-(1-((3-(4-(dimethylamino)but-2-enamido)phenyl)sulfonyl)piperidin-4-yl)-N-methyl-1H-pyrazole-3-carboxamide]
IC50 (CDK2/CycA; [1]): 0.664 µM
IC50 (CDK16/CycY; [2]): 0.894 µM
IC50 (Cdk14/CycY): > 1 µM
IC50 (HCT116 cells; Homo sapiens, HCT-116, 72 h): > 10 µM

CN(C)C/C=C/C(=O)Nc1cccc(S(=O)(=O)N2CCC(NC(=O)c3nscc3NC(=O)c3c(Cl)cccc3Cl)CC2)c1 [FMF-04-089-2, (E)-4-(2,6-dichlorobenzamido)-N-(1-((3-(4-(dimethylamino)but-2-enamido)phenyl)sulfonyl)piperidin-4-yl)isothiazole-3-carboxamide]
IC50 (CDK2/CycA; [1]): 0.439 µM
IC50 (CDK16/CycY; [2]): 0.404 µM
IC50 (Cdk14/CycY): > 1 µM
IC50 (HCT116 cells; Homo sapiens, HCT-116, 72 h): 3.04 µM

COc1cccc(Cl)c1C(=O)Nc1c[nH]nc1C(=O)NC1CCN(S(=O)(=O)c2cccc(NC(=O)/C=C/CN(C)C)c2)CC1 [FMF-04-107-2, (E)-4-(2-chloro-6-methoxybenzamido)-N-(1-((3-(4-(dimethylamino)but-2-enamido)phenyl)sulfonyl)piperidin-4-yl)-1H-pyrazole-3-carboxamide]
IC50 (CDK2/CycA; read-out: CDK2 IC50): 0.0045 µM
IC50 (CDK2/CycA; [1]): 0.0045 µM
IC50 (CDK16/CycY; read-out: CDK16 IC50): 0.0023 µM
IC50 (CDK16/CycY; [2]): 0.0023 µM
IC50 (HCT116 cells): 0.524 µM
IC50 (HCT116 cells; Homo sapiens, HCT-116, 72 h): 0.524 µM

CN(C)C/C=C/C(=O)Nc1cccc(S(=O)(=O)N2CCC(NC(=O)c3c(NC(=O)c4c(Cl)cccc4Cl)cnn3C)CC2)c1 [FMF-04-121-1, (E)-4-(2,6-dichlorobenzamido)-N-(1-((3-(4-(dimethylamino)but-2-enamido)phenyl)sulfonyl)piperidin-4-yl)-1-methyl-1H-pyrazole-5-carboxamide]
IC50 (CDK2/CycA; [1]): > 10 µM
IC50 (CDK16/CycY; [2]): 6.7 µM
IC50 (Cdk14/CycY): 0.486 µM
IC50 (HCT116 cells; Homo sapiens, HCT-116, 72 h): 2.86 µM

CCC(=O)Nc1cccc(CN2CCC(NC(=O)c3n[nH]cc3NC(=O)c3c(Cl)cccc3Cl)CC2)c1 [FMF-04-172-2, 4-(2,6-dichlorobenzamido)-N-(1-(3-propionamidobenzyl)piperidin-4-yl)-1H-pyrazole-3-carboxamide]
IC50 (CDK2/CycA; [1]): 0.0196 µM
IC50 (CDK16/CycY; [2]): 0.0294 µM
IC50 (HCT116 cells): 0.173 µM
IC50 (HCT116 cells; Homo sapiens, HCT-116, 72 h): 0.123 µM

Cc1[nH]nc(C(=O)NC2CCN(S(=O)(=O)c3cccc(NC(=O)/C=C/CN(C)C)c3)CC2)c1NC(=O)c1c(Cl)cccc1Cl [FMF-04-181-2, (E)-4-(2,6-dichlorobenzamido)-N-(1-((3-(4-(dimethylamino)but-2-enamido)phenyl)sulfonyl)piperidin-4-yl)-5-methyl-1H-pyrazole-3-carboxamide]
IC50 (CDK2/CycA; [1]): 0.125 µM
IC50 (CDK16/CycY; [2]): 0.124 µM
IC50 (Cdk14/CycY): > 1 µM
IC50 (HCT116 cells; Homo sapiens, HCT-116, 72 h): > 10 µM

COc1cccc(Cl)c1C(=O)Nc1c[nH]nc1C(=O)NC1CCN(Cc2cccc(NC(=O)/C=C/CN(C)C)c2)CC1 [FMF-05-032-1, (E)-4-(2-chloro-6-methoxybenzamido)-N-(1-(3-(4-(dimethylamino)but-2-enamido)benzyl)piperidin-4-yl)-1H-pyrazole-3-carboxamide]
IC50 (CDK2/CycA; read-out: CDK2 IC50): 0.036 µM
IC50 (CDK2/CycA; [1]): 0.036 µM
IC50 (CDK16/CycY; read-out: CDK16 IC50): 0.0082 µM
IC50 (CDK16/CycY; [2]): 0.0082 µM
IC50 (HCT116 cells; Homo sapiens, HCT-116, 72 h): 0.115 µM

CCC(=O)Nc1cccc(S(=O)(=O)N2CCC(NC(=O)c3n[nH]cc3NC(=O)c3c(Cl)cccc3OC)CC2)c1 [FMF-05-033-1, 4-(2-chloro-6-methoxybenzamido)-N-(1-((3-propionamidophenyl)sulfonyl)piperidin-4-yl)-1H-pyrazole-3-carboxamide]
IC50 (CDK2/CycA; [1]): 0.003 µM
IC50 (CDK16/CycY; [2]): 0.0034 µM
IC50 (HCT116 cells; Homo sapiens, HCT-116, 72 h): 0.172 µM

C=CC(=O)Nc1ccc(CN2CC[C@H](NC(=O)c3n[nH]cc3NC(=O)c3c(Cl)cccc3Cl)C2)cc1 [FMF-05-070-1, (S)—N-(1-(4-acrylamidobenzyl)pyrrolidin-3-yl)-4-(2,6-dichlorobenzamido)-1H-pyrazole-3-carboxamide]
IC50 (Cdk14/CycY): 0.572 µM
IC50 (HCT116 cells; Homo sapiens, HCT-116, 72 h): 0.031 µM

C=CC(=O)Nc1cccc(CN2CC[C@@H](NC(=O)c3n[nH]cc3NC(=O)c3c(Cl)cccc3Cl)C2)c1 [FMF-05-071-1, (R)—N-(1-(3-acrylamidobenzyl)pyrrolidin-3-yl)-4-(2,6-dichlorobenzamido)-1H-pyrazole-3-carboxamide]
IC50 (Cdk14/CycY): 0.282 µM
IC50 (HCT116 cells; Homo sapiens, HCT-116, 72 h): < 0.001 µM

C=CC(=O)Nc1ccc(CN2CC[C@@H](NC(=O)c3n[nH]cc3NC(=O)c3c(Cl)cccc3Cl)C2)cc1 [FMF-05-072-1, (R)—N-(1-(4-acrylamidobenzyl)pyrrolidin-3-yl)-4-(2,6-dichlorobenzamido)-1H-pyrazole-3-carboxamide]
IC50 (Cdk14/CycY): 0.257 µM
IC50 (HCT116 cells; Homo sapiens, HCT-116, 72 h): < 0.001 µM

C=CC(=O)Nc1ccc(N2CCC(NC(=O)c3n[nH]cc3NC(=O)c3c(Cl)cccc3Cl)CC2)cc1 [FMF-05-073-1, N-(1-(4-acrylamidophenyl)piperidin-4-yl)-4-(2,6-dichlorobenzamido)-1H-pyrazole-3-carboxamide]
IC50 (Cdk14/CycY): 0.154 µM
IC50 (HCT116 cells; Homo sapiens, HCT-116, 72 h): 0.03 µM

C=CC(=O)Nc1ccc(N2CC[C@H](NC(=O)c3n[nH]cc3NC(=O)c3c(Cl)cccc3Cl)C2)cc1 [FMF-05-074-1, (S)—N-(1-(4-acrylamidophenyl)pyrrolidin-3-yl)-4-(2,6-dichlorobenzamido)-1H-pyrazole-3-carboxamide]
IC50 (Cdk14/CycY): 1.2 µM
IC50 (HCT116 cells; Homo sapiens, HCT-116, 72 h): 2.9 µM

CN(C)C/C=C/C(=O)Nc1ccc(N2CC[C@H](NC(=O)c3n[nH]cc3NC(=O)c3c(Cl)cccc3Cl)C2)cc1 [FMF-05-074-2, (S,E)-4-(2,6-dichlorobenzamido)-N-(1-(4-(4-(dimethylamino)but-2-enamido)phenyl)pyrrolidin-3-yl)-1H-pyrazole-3-carboxamide]
IC50 (Cdk14/CycY): 0.116 µM
IC50 (HCT116 cells; Homo sapiens, HCT-116, 72 h): > 10 µM

C=CC(=O)Nc1ccc(N2CC[C@@H](NC(=O)c3n[nH]cc3NC(=O)c3c(Cl)cccc3Cl)C2)cc1 [FMF-05-075-1, (R)—N-(1-(4-acrylamidophenyl)pyrrolidin-3-yl)-4-(2,6-dichlorobenzamido)-1H-pyrazole-3-carboxamide]
IC50 (Cdk14/CycY): 0.267 µM
IC50 (HCT116 cells; Homo sapiens, HCT-116, 72 h): 0.064 µM

CN(C)C/C=C/C(=O)Nc1ccc(N2CC[C@@H](NC(=O)c3n[nH]cc3NC(=O)c3c(Cl)cccc3Cl)C2)cc1 [FMF-05-075-2, (R,E)-4-(2,6-dichlorobenzamido)-N-(1-(4-(4-(dimethylamino)but-2-enamido)phenyl)pyrrolidin-3-yl)-1H-pyrazole-3-carboxamide]
IC50 (Cdk14/CycY): 0.738 µM
IC50 (HCT116 cells; Homo sapiens, HCT-116, 72 h): 0.714 µM

CN(C)C/C=C/C(=O)Nc1ccc(S(=O)(=O)N2CC[C@H](NC(=O)c3n[nH]cc3NC(=O)c3c(Cl)cccc3Cl)C2)cc1 [FMF-05-084-2, (S,E)-4-(2,6-dichlorobenzamido)-N-(1-((4-(4-(dimethylamino)but-2-enamido)phenyl)sulfonyl)pyrrolidin-3-yl)-1H-pyrazole-3-carboxamide]
IC50 (Cdk14/CycY): 0.041 µM
IC50 (HCT116 cells; Homo sapiens, HCT-116, 72 h): > 10 µM

CN(C)C/C=C/C(=O)Nc1cccc(N2CC[C@H](NC(=O)c3n[nH]cc3NC(=O)c3c(Cl)cccc3Cl)C2)c1 [FMF-05-086-2, (S,E)-4-(2,6-dichlorobenzamido)-N-(1-(3-(4-(dimethylamino)but-2-enamido)phenyl)pyrrolidin-3-yl)-1H-pyrazole-3-carboxamide]
IC50 (Cdk14/CycY): 0.218 µM
IC50 (HCT116 cells; Homo sapiens, HCT-116, 72 h): > 10 µM

C=CC(=O)Nc1cccc(N2CC[C@@H](NC(=O)c3n[nH]cc3NC(=O)c3c(Cl)cccc3Cl)C2)c1 [FMF-05-087-1, (R)—N-(1-(3-acrylamidophenyl)pyrrolidin-3-yl)-4-(2,6-dichlorobenzamido)-1H-pyrazole-3-carboxamide]
IC50 (Cdk14/CycY): 1.1 µM
IC50 (HCT116 cells): 0.022 µM

CN(C)C/C=C/C(=O)Nc1cccc(N2CC[C@@H](NC(=O)c3n[nH]cc3NC(=O)c3c(Cl)cccc3Cl)C2)c1 [FMF-05-087-2, (R,E)-4-(2,6-dichlorobenzamido)-N-(1-(3-(4-(dimethylamino)but-2-enamido)phenyl)pyrrolidin-3-yl)-1H-pyrazole-3-carboxamide]
IC50 (Cdk14/CycY): 1.3 µM
IC50 (HCT116 cells; Homo sapiens, HCT-116, 72 h): 0.123 µM

CN(C)C/C=C/C(=O)Nc1cccc(S(=O)(=O)N2CCC(NC(=O)c3n[nH]cc3NC(=O)C3CCC(F)(F)CC3)CC2)c1 [FMF-05-116-1, (E)-4-(4,4-difluorocyclohexane-1-carboxamido)-N-(1-((3-(4-(dimethylamino)but-2-enamido)phenyl)sulfonyl)piperidin-4-yl)-1H-pyrazole-3-carboxamide]
IC50 (CDK2/CycA; [1]): 0.0515 µM
IC50 (CDK16/CycY; [2]): 0.14 µM
IC50 (HCT116 cells; Homo sapiens, HCT-116, 72 h): 8.2 µM
